Laboratory results as given in ChEMBL document CHEMBL1201861, “Genomics of Drug Sensitity in Cancer screening data, Wellcome Trust Sanger Institute”.
pIC50: −log10 of the molar value.

Experiments:
Experiment in all cases: cells
SK-N-DZ = type: functional, cell-based, Homo sapiens; settings: Homo sapiens, SK-N-DZ;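 further: growth inhibition of the cancer cell line, read out through a viability assay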
Description: SANGER: Inhibition of human SK-N-DZ cell growth in a cell viability assay.

JVM-3 = type: functional, cell-based, Homo sapiens; settings: Homo sapiens, JVM-3;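 further: growth inhibition of human JVM-3 cells, read out with a cell viability assay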
Description: SANGER: Inhibition of human JVM-3 cell growth in a cell viability assay.

IST-MEL1 = type: functional, cell-based, Homo sapiens; settings: Homo sapiens, IST-MEL1;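 further: growth inhibition of the cell line, read out with a cell viability assay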
Description: SANGER: Inhibition of human IST-MEL1 cell growth in a cell viability assay.

NKM-1 = type: functional, cell-based, Homo sapiens; settings: Homo sapiens, NKM-1;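 further: growth inhibition of NKM-1 cells, read out with a cell viability assay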
Description: SANGER: Inhibition of human NKM-1 cell growth in a cell viability assay.

IA-LM = type: functional, cell-based, Homo sapiens; settings: Homo sapiens, IA-LM;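 further: cell viability assay measuring growth inhibition of human IA-LM cells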
Description: SANGER: Inhibition of human IA-LM cell growth in a cell viability assay.

SK-UT-1 = type: functional, cell-based, Homo sapiens; settings: Homo sapiens, SK-UT-1;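 further: growth inhibition of SK-UT-1 cells, measured by a cell viability assay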
Description: SANGER: Inhibition of human SK-UT-1 cell growth in a cell viability assay.

ES3 = type: functional, cell-based, Homo sapiens; settings: Homo sapiens, ES3;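 further: growth inhibition of ES3 cells, read out with a cell viability assay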
Description: SANGER: Inhibition of human ES3 cell growth in a cell viability assay.

NCI-H23 = type: functional, cell-based, Homo sapiens; settings: Homo sapiens, NCI-H23;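 further: cell viability assay measuring growth inhibition of NCI-H23 cells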
Description: SANGER: Inhibition of human NCI-H23 cell growth in a cell viability assay.

NCI-N87 = type: functional, cell-based, Homo sapiens; settings: Homo sapiens, NCI-N87;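 further: growth inhibition of human NCI-N87 cells, read out with a cell viability assay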
Description: SANGER: Inhibition of human NCI-N87 cell growth in a cell viability assay.

A4-Fuk = type: functional, cell-based, Homo sapiens; settings: Homo sapiens, A4-Fuk;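 further: growth inhibition of A4-Fuk cells, read out by a cell viability assay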
Description: SANGER: Inhibition of human A4-Fuk cell growth in a cell viability assay.

LNCaP-Clone-FGC = type: functional, cell-based, Homo sapiens; settings: Homo sapiens, LNCaP-Clone-FGC
Description: SANGER: Inhibition of human LNCaP-Clone-FGC cell growth in a cell viability assay.

ACN = type: functional, cell-based, Homo sapiens; settings: Homo sapiens, ACN;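 further: growth inhibition of the human ACN cell line, read out via cell viability testing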
Description: SANGER: Inhibition of human ACN cell growth in a cell viability assay.

HEL = type: functional, cell-based, Homo sapiens; settings: Homo sapiens, HEL;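 further: growth inhibition of HEL cells, read out with a cell viability assay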
Description: SANGER: Inhibition of human HEL cell growth in a cell viability assay.

TE-12 = type: functional, cell-based, Homo sapiens; settings: Homo sapiens, TE-12;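 further: growth inhibition of TE-12 cells, read out by a cell viability assay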
Description: SANGER: Inhibition of human TE-12 cell growth in a cell viability assay.

CCRF-CEM = type: functional, cell-based, Homo sapiens; settings: Homo sapiens, CCRF-CEM;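 further: inhibition of CCRF-CEM cell growth, measured by a cell viability assay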
Description: SANGER: Inhibition of human CCRF-CEM cell growth in a cell viability assay.

SH-4 = type: functional, cell-based, Homo sapiens; settings: Homo sapiens, SH-4;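 further: growth inhibition of SH-4 cells, read out with a cell viability assay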
Description: SANGER: Inhibition of human SH-4 cell growth in a cell viability assay.

MEG-01 = type: functional, cell-based, Homo sapiens; settings: Homo sapiens, MEG-01;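 further: growth inhibition of MEG-01 cells, read out by a cell viability assay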
Description: SANGER: Inhibition of human MEG-01 cell growth in a cell viability assay.

HCC2218 = type: functional, cell-based, Homo sapiens; settings: Homo sapiens, HCC2218;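 further: cell viability assay read-out, with IC50 given as the concentration that inhibits growth of the cell line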
Description: SANGER: Inhibition of human HCC2218 cell growth in a cell viability assay.

EW-11 = type: functional, cell-based, Homo sapiens; settings: Homo sapiens, EW-11;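 further: growth inhibition of human EW-11 cells, measured with a cell viability assay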
Description: SANGER: Inhibition of human EW-11 cell growth in a cell viability assay.

TE-1 = type: functional, cell-based, Homo sapiens; settings: Homo sapiens, TE-1
Description: SANGER: Inhibition of human TE-1 cell growth in a cell viability assay.

GR-ST = type: functional, cell-based, Homo sapiens; settings: Homo sapiens, GR-ST
Description: SANGER: Inhibition of human GR-ST cell growth in a cell viability assay.

MC116 = type: functional, cell-based, Homo sapiens; settings: Homo sapiens, MC116;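 further: growth inhibition of MC116 cells, read out with a cell viability assay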
Description: SANGER: Inhibition of human MC116 cell growth in a cell viability assay.

D283 Med = type: functional, cell-based, Homo sapiens; settings: Homo sapiens, D283 Med
Description: SANGER: Inhibition of human D-283MED cell growth in a cell viability assay.

SK-N-FI = type: functional, cell-based, Homo sapiens; settings: Homo sapiens, SK-N-FI;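 further: cell viability assay measuring growth inhibition of human SK-N-FI cells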
Description: SANGER: Inhibition of human SK-N-FI cell growth in a cell viability assay.

HCE-T = type: functional, cell-based, Homo sapiens; settings: Homo sapiens, HCE-T;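 further: cell viability assay read-out, reporting inhibition of HCE-T cell growth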
Description: SANGER: Inhibition of human HCE-T cell growth in a cell viability assay.

DSH1 = type: functional, cell-based, Homo sapiens; settings: Homo sapiens, DSH1;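 further: growth inhibition of human DSH1 cells, measured with a cell viability readout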
Description: SANGER: Inhibition of human DSH1 cell growth in a cell viability assay.

KM12 = type: functional, cell-based, Homo sapiens; settings: Homo sapiens, KM12;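 further: KM12 cell growth inhibition, read out with a cell viability assay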
Description: SANGER: Inhibition of human KM12 cell growth in a cell viability assay.

CP66-MEL = type: functional, cell-based, Homo sapiens; settings: Homo sapiens, CP66-MEL;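 further: growth inhibition of CP66-MEL cells determined in a cell viability assay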
Description: SANGER: Inhibition of human CP66-MEL cell growth in a cell viability assay.

BE-13 = type: functional, cell-based, Homo sapiens; settings: Homo sapiens, BE-13;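 further: growth inhibition of human BE-13 cells, measured with a cell viability assay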
Description: SANGER: Inhibition of human BE-13 cell growth in a cell viability assay.

U-87 MG = type: functional, cell-based, Homo sapiens, U-87MG ATCC; settings: Homo sapiens, U-87 MG;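 further: growth inhibition of the cells measured with a viability assay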
Description: SANGER: Inhibition of human U-87-MG cell growth in a cell viability assay.

A388 = type: functional, cell-based, Homo sapiens; settings: Homo sapiens, A388;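 further: growth inhibition of human A388 cells, read out with a cell viability assay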
Description: SANGER: Inhibition of human A388 cell growth in a cell viability assay.

NOMO-1 = type: functional, cell-based, Homo sapiens; settings: Homo sapiens, NOMO-1;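 further: growth inhibition of human NOMO-1 cells measured by a cell viability assay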
Description: SANGER: Inhibition of human NOMO-1 cell growth in a cell viability assay.

COLO-668 = type: functional, cell-based, Homo sapiens; settings: Homo sapiens, COLO-668
Description: SANGER: Inhibition of human COLO-668 cell growth in a cell viability assay.

LU-134-A = type: functional, cell-based, Homo sapiens; settings: Homo sapiens, LU-134-A
Description: SANGER: Inhibition of human LU-134-A cell growth in a cell viability assay.

EW-3 = type: functional, cell-based, Homo sapiens; settings: Homo sapiens, EW-3;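 further: cell viability assay read-out, IC50 reflects inhibition of growth of the EW-3 cells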
Description: SANGER: Inhibition of human EW-3 cell growth in a cell viability assay.

NCI-H747 = type: functional, cell-based, Homo sapiens; settings: Homo sapiens, NCI-H747;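 further: growth inhibition of human NCI-H747 cells, read out by a cell viability assay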
Description: SANGER: Inhibition of human NCI-H747 cell growth in a cell viability assay.

ES8 = type: functional, cell-based, Homo sapiens; settings: Homo sapiens, ES8;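 further: growth inhibition of human ES8 cells, read out with a cell viability assay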
Description: SANGER: Inhibition of human ES8 cell growth in a cell viability assay.

SK-MEL-2 = type: functional, cell-based, Homo sapiens; settings: Homo sapiens, SK-MEL-2;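 further: growth inhibition of human SK-MEL-2 cells measured with a cell viability assay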
Description: SANGER: Inhibition of human SK-MEL-2 cell growth in a cell viability assay.

U-266 = type: functional, cell-based, Homo sapiens; settings: Homo sapiens, U-266
Description: SANGER: Inhibition of human U-266 cell growth in a cell viability assay.

LC-2-ad = type: functional, cell-based, Homo sapiens; settings: Homo sapiens, LC-2-ad;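 further: growth inhibition of human LC-2-ad cells, read out with a cell viability assay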
Description: SANGER: Inhibition of human LC-2-ad cell growth in a cell viability assay.

A498 = type: functional, cell-based, Homo sapiens; settings: Homo sapiens, A498;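 further: growth inhibition of human A498 cells, read out with a cell viability assay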
Description: SANGER: Inhibition of human A498 cell growth in a cell viability assay.

RH-1 = type: functional, cell-based, Homo sapiens; settings: Homo sapiens, RH-1;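 further: growth inhibition of human RH-1 cells, read out with a cell viability assay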
Description: SANGER: Inhibition of human RH-1 cell growth in a cell viability assay.

KARPAS-45 = type: functional, cell-based, Homo sapiens; settings: Homo sapiens, KARPAS-45;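 further: inhibition of cell line growth, read out through a viability assay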
Description: SANGER: Inhibition of human KARPAS-45 cell growth in a cell viability assay.

KNS-81-FD = type: functional, cell-based, Homo sapiens; settings: Homo sapiens, KNS-81-FD;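 further: growth inhibition of KNS-81-FD cells, read out with a cell viability assay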
Description: SANGER: Inhibition of human KNS-81-FD cell growth in a cell viability assay.

GB-1 = type: functional, cell-based, Homo sapiens; settings: Homo sapiens, GB-1;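 further: growth of GB-1 cells judged by a viability assay, IC50 marks the concentration inhibiting growth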
Description: SANGER: Inhibition of human GB-1 cell growth in a cell viability assay.

SW 954 = type: functional, cell-based, Homo sapiens; settings: Homo sapiens, SW 954;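 further: growth inhibition of SW954 human cancer cells, read out as cell viability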
Description: SANGER: Inhibition of human SW954 cell growth in a cell viability assay.

NCI-H526 = type: functional, cell-based, Homo sapiens; settings: Homo sapiens, NCI-H526;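 further: growth inhibition of the human NCI-H526 cell line, measured by a cell viability assay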
Description: SANGER: Inhibition of human NCI-H526 cell growth in a cell viability assay.

SHP77 = type: functional, cell-based, Homo sapiens, SHP-77; settings: Homo sapiens, SHP77;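 further: growth inhibition of human SHP-77 cells measured by a cell viability assay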
Description: SANGER: Inhibition of human SHP-77 cell growth in a cell viability assay.

EW-24 = type: functional, cell-based, Homo sapiens; settings: Homo sapiens, EW-24;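 further: human EW-24 cancer cell line, growth inhibition read out via a cell viability assay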
Description: SANGER: Inhibition of human EW-24 cell growth in a cell viability assay.

COc1cccc2c1C(=O)c1c(O)c3c(c(O)c1C2=O)C[C@@](O)(C(=O)CO)C[C@@H]3O[C@H]1C[C@H](N)[C@H](O)[C@H](C)O1 [DOXORUBICIN] showed a pIC50 (SK-N-DZ) of under 5.99, a pIC50 (JVM-3) of under 5.99 and a pIC50 (IST-MEL1) of 7.35. For the same compound, the pIC50 (NKM-1) was 7.53, the pIC50 (IA-LM) was 7.20 and the pIC50 (SK-UT-1) was 7.70. For the same compound, the pIC50 (ES3) was 7.05, the pIC50 (NCI-H23) was 6.55 and the pIC50 (NCI-N87) was 6.32. It also gave a pIC50 (A4-Fuk) of 6.79, a pIC50 (LNCaP-Clone-FGC) of 6.69 and a pIC50 (ACN) of 7.51. The pIC50 (HEL) was 6.76, the pIC50 (TE-12) was 7.09 and the pIC50 (CCRF-CEM) was 7.61. It also gave a pIC50 (SH-4) of 7.04, a pIC50 (MEG-01) of 6.75 and a pIC50 (HCC2218) of 6.74. For the same compound, the pIC50 (EW-11) was 6.47, the pIC50 (TE-1) was 7.12 and the pIC50 (GR-ST) was 6.59. The pIC50 (MC116) was 6.41, the pIC50 (D283 Med) was 6.60 and the pIC50 (SK-N-FI) was under 5.99. It also gave a pIC50 (HCE-T) of 6.78, a pIC50 (DSH1) of 6.43 and a pIC50 (KM12) of 6.66. The pIC50 (CP66-MEL) was under 5.99, the pIC50 (BE-13) was 7.29 and the pIC50 (U-87 MG) was 6.46. The pIC50 (A388) was 7.55, the pIC50 (NOMO-1) was 6.65 and the pIC50 (COLO-668) was 7.07. The pIC50 (LU-134-A) was 7.17, the pIC50 (EW-3) was 6.55 and the pIC50 (NCI-H747) was 6.87. The pIC50 (ES8) was 7.68, the pIC50 (SK-MEL-2) was 6.64 and the pIC50 (U-266) was 6.35. The pIC50 (LC-2-ad) was 8.29, the pIC50 (A498) was under 5.99 and the pIC50 (RH-1) was 8.17. For the same compound, the pIC50 (KARPAS-45) was under 5.99, the pIC50 (KNS-81-FD) was 6.80 and the pIC50 (GB-1) was 6.67. For the same compound, the pIC50 (SW 954) was 7.77, the pIC50 (NCI-H526) was 7.30 and the pIC50 (SHP77) was under 5.99. It also gave a pIC50 (EW-24) of 6.01.
In the case of Nc1ccn([C@@H]2O[C@H](CO)[C@@H](O)C2(F)F)c(=O)n1 [GEMCITABINE], the pIC50 (SK-N-DZ) was 7.06, the pIC50 (JVM-3) was under 5.99 and the pIC50 (IST-MEL1) was over 8.40. The pIC50 (NKM-1) was over 8.40, the pIC50 (IA-LM) was 8.23 and the pIC50 (SK-UT-1) was over 8.40. The pIC50 (ES3) was 7.35, the pIC50 (NCI-H23) was 6.68 and the pIC50 (NCI-N87) was 6.48. The pIC50 (A4-Fuk) was over 8.40, the pIC50 (LNCaP-Clone-FGC) was under 5.99 and the pIC50 (ACN) was over 8.40. For the same compound, the pIC50 (HEL) was 8.75, the pIC50 (TE-12) was under 5.99 and the pIC50 (CCRF-CEM) was 7.72. For the same compound, the pIC50 (SH-4) was 8.04, the pIC50 (MEG-01) was 8.90 and the pIC50 (HCC2218) was under 5.99. The pIC50 (EW-11) was 6.36, the pIC50 (TE-1) was under 5.99 and the pIC50 (GR-ST) was over 8.40. For the same compound, the pIC50 (MC116) was 6.32, the pIC50 (D283 Med) was 6.90 and the pIC50 (SK-N-FI) was under 5.99. The pIC50 (HCE-T) was 7.91, the pIC50 (DSH1) was 7.02 and the pIC50 (KM12) was 7.04. For the same compound, the pIC50 (CP66-MEL) was under 5.99, the pIC50 (BE-13) was 8.28 and the pIC50 (U-87 MG) was 6.72. It also gave a pIC50 (A388) of 8.86, a pIC50 (NOMO-1) of 7.54 and a pIC50 (COLO-668) of 8.58. For the same compound, the pIC50 (LU-134-A) was 7.40, the pIC50 (EW-3) was 6.24 and the pIC50 (NCI-H747) was 7.37. It also gave a pIC50 (ES8) of over 8.40, a pIC50 (SK-MEL-2) of under 5.99 and a pIC50 (U-266) of 6.22. It also gave a pIC50 (LC-2-ad) of over 8.40, a pIC50 (A498) of under 5.99 and a pIC50 (RH-1) of over 8.40. For the same compound, the pIC50 (KARPAS-45) was under 5.99, the pIC50 (KNS-81-FD) was under 5.99 and the pIC50 (GB-1) was 8.23. It also gave a pIC50 (SW 954) of 7.63, a pIC50 (NCI-H526) of 6.96 and a pIC50 (SHP77) of under 5.99. It also gave a pIC50 (EW-24) of under 5.99.
